Laboratory results reported in patent US9675606B2, “2-amino-3-(imidazol-2-yl)-pyridin-4-one derivatives and their use as VEGF receptor kinase inhibitors” (SANOFI, priority 2011, dated 2017).
Read-outs that look alike come from different tables or passages of the source.

How the values were obtained:
VEGFR-3 [1] = molecular target: T1, VEGFR-3 (Homo sapiens, UniProt P35916); assay: Effect of compounds on VEGFR-3 auto-phosphorylation in HEK cells (ELISA); type: cell-based; settings: autophosphorylation of VEGFR-3-Flag overexpressed in HEK293T cells, 1 h incubation with compound
T1 construct: expressed in transfected cells; host or cells: HEK293T cells, transient transfection with Fugene-6
T1 sequence (P35916 25-1363, species assumed): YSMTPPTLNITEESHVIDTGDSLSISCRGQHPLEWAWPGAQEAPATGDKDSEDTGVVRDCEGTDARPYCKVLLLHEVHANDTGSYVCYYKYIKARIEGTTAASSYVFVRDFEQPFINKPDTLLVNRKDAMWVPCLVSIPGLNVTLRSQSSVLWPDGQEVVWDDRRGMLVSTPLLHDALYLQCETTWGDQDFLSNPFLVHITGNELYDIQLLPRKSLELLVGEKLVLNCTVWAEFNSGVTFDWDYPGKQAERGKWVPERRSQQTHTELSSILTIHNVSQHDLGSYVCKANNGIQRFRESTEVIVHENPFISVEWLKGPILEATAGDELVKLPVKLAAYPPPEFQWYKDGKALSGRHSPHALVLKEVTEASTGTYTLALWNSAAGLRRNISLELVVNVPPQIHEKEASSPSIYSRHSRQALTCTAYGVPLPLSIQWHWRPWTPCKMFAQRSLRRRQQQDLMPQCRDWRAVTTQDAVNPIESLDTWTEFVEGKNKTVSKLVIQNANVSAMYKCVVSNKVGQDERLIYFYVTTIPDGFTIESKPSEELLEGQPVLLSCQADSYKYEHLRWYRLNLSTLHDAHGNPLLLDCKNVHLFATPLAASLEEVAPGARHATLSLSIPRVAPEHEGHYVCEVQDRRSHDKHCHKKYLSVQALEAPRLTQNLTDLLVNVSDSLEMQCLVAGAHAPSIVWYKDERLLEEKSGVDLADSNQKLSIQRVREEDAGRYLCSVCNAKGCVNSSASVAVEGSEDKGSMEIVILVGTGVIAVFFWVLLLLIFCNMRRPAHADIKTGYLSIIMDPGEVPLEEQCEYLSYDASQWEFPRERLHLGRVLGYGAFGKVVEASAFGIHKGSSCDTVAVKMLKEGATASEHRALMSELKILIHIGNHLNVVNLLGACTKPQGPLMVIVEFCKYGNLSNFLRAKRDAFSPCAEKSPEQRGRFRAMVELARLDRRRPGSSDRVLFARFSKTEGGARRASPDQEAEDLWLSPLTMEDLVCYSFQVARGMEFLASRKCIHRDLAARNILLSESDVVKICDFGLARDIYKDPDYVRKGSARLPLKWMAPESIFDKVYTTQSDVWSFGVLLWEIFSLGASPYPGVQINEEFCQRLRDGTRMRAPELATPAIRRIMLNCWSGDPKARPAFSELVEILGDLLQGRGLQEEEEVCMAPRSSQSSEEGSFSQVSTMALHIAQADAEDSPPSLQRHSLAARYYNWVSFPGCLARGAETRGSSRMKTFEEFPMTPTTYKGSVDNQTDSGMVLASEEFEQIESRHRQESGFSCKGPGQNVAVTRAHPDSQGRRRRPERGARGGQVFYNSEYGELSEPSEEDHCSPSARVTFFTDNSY
Procedure: Effect of Compounds on VEGFR-3 Auto-Phosphorylation in HEK Cells
The effects of compounds in blocking VEGFR-3 autophosphorylation were quatified by ELISA after Overexpression of VEGFR-3 in HEK cells. HEK293T cells were maintained in MEM supplemented with 10% foetal calf serum (FCS) and glutamine. The day before transfection, […] were seeded on 48 wells plates and transfection was done using Fugene-6 (Roche, Basel). Fugene-6 (18 μL) was preincubated for 5 min with 282 μl of optimem. Then 3 μg DNA corresponding VFGR-3-Flag was added and left at room temperature during 10 min before distributing 200 μl on HEK cells. After 24 h, the medium was removed and replaced by a new one without serum and incubated for 1 h with different concentrations (ranging from 3 to 1000 nM) of each compound. After additional 30 min incubation with Orthovanadate (0.4 mM), cells were washed with cold PBS supplemented by orthovanadate and then lysed with 300 μl of RIPA buffer. Lysates were then centrifuged during 10 min at 10000 g. Supernatants (75 μl) were distributed in duplicate on 96 well plate precoated with the anti-Flag and left during 1 hour at room temperature. After 3 washes with TBS buffer containing 0.5% tween 20, the anti-phospho-tyrosine conjugated to the HRP was added and incubated for 1 hour at room temperature. Wells were then washed 3 times with TBS buffer containing tween 20 (0.5%) and MgCl2 (2 mM). The reaction was stopped with 50 μl of H2SO4 (2 N) and the signal was read at Envision at 485 and 530.
The concentration-response curves were analyzed with internal software Biost@t-SPEED v2.0 using the 4-parameter logistic model according to Ratkovsky and Reedy (Ratkovsky D A., Reedy T J. Choosing near-linear parameters in the four parameters logistic model radioligands and related assays. Biometrics 1986 September 42(3):575-82.)

VEGFR-3 [2] = molecular target: T1, VEGFR-3; assay: Ex vivo assay: VEGFR-3 autophosphorylation in HEK cells incubated with plasma of mice dosed p.o.; set-up: species or system male Balb/c mice; settings: HEK293, mouse, transfected HEK cells incubated with plasma (10%), read-out: Ex vivo inhibition (%) At the time
Procedure: Protocol for administration of the products to the mice:
The products are prepared in a mortar with 0.5% Tween 80 and 0.6% methylcellulose qs final volume. The suspensions are administered by gavage (10 ml/kg) to male Balb/c mice 8 to 15 weeks old. Three hours or 6 hours after single oral administrations of 30 mg/kg, animals were anaesthetized with pentobarbital and blood samples (400 μL) were collected from cava vein and transferred into glass tubes containing lithium heparin. After centrifugation (1500-2000 g for 10 minutes), plasma samples were frozen at a temperature close to −20° C. until analysis.
In order to detect the ex vivo activity of the products in the plasmas, we have used the autophosphorylation assay in HEK cells described earlier. For this purpose, transfected cells were incubated with plasma (10%) instead of compounds. Results are expressed as percent of inhibition of VEGFR-3 autophosphorylation in comparison to untreated cells (maximum autophosphorylation) and to untransfected cells (background).
Results are expressed as a percentage of inhibition of VEGFR-3 auto-phosphorylation of in HEK cells, in presence of a plasma sample collected (at a time), after per os (p.o.) administration of compounds. In order to evaluate the increase of this activity for compounds of the invention, a comparison with compounds of the prior art (WO 2009/007535) and subjected to the same measurement is made in table 3.

[3] = 3 h after single oral administration of 30 mg/kg to male Balb/c mice
[4] = 6 h after single oral administration of 30 mg/kg to male Balb/c mice

CCn1c(N)c(-c2ncc[nH]2)c(=O)c2ccc(C#C[C@@](C)(O)CO)nc21 [Compound 27, 2-Amino-7-((3R)3,4-dihydroxy-3-methyl-but-1-ynyl)-1-ethyl-3-(1H-imidazol-2-yl)-1,8-naphthyridin-4(1H)-one]
IC50 (VEGFR-3 [1]): 47 nM

CCn1c(N)c(-c2ncc[nH]2)c(=O)c2ccc(C#CC(C)(C)O)nc21 [Compound 15, 2-Amino-1-ethyl-7-(3-hydroxy-3-methylbut-1-yn-1-yl)-3-(1H-imidazol-2-yl)-1,8-naphthyridin-4(1H)-one]
IC50 (VEGFR-3 [1]): 27 nM

CCn1c(N)c(-c2ncc[nH]2)c(=O)c2ccc(C#CC(C)(O)CC)nc21 (racemic) [Compound 16, 2-Amino-1-ethyl-7-(3-hydroxy-3-methylpent-1-yn-1-yl)-3-(1H-imidazol-2-yl)-1,8-naphthyridin-4(1H)-one]
IC50 (VEGFR-3 [1]): 119 nM
inhibition at 30 mg/kg (VEGFR-3 [2]; [3]): 48%

CCn1c(N)c(-c2ncc[nH]2)c(=O)c2ccc(C#C[C@](C)(O)COC)nc21 [Compound 29, 2-Amino-1-ethyl-7-((3S)-3-hydroxy-4-methoxy-3-methyl-but-1-ynyl)-3-(1H-imidazol-2-yl)-1,8-naphthyridin-4(1H)-one]
IC50 (VEGFR-3 [1]): 145 nM

CCn1c(N)c(-c2ncc[nH]2)c(=O)c2ccc(C#CC(C)(O)CO)nc21 (racemic) [Compound 3, 2-Amino-7-(3,4-dihydroxy-3-methyl-but-1-ynyl)-1-ethyl-3-(1H-imidazol-2-yl)-1H-[1,8]naphthyridin-4-one]
IC50 (VEGFR-3 [1]): 125 nM
inhibition at 30 mg/kg (VEGFR-3 [2]; [3]): 51%

CCn1c(N)c(-c2ncc[nH]2)c(=O)c2ccc(C#CC3(O)CCCC3)nc21 [Compound 14, 2-Amino-1-ethyl-7-[(1-hydroxycyclopentyl)ethynyl]-3-(1H-imidazol-2-yl)-1,8-naphthyridin-4(1H)-one]
IC50 (VEGFR-3 [1]): 200 nM

CCCn1c(N)c(-c2ncc[nH]2)c(=O)c2ccc(C#C[C@@](C)(O)COC)nc21 [Compound 2, 2-Amino-1-propyl-7-((3R)-3-hydroxy-4-methoxy-3-methyl-but-1-ynyl)-3-(1H-imidazol-2-yl)-1H-[1,8]naphthyridin-4-one]
IC50 (VEGFR-3 [1]): 18 nM

CCC(O)C#Cc1ccc2c(=O)c(-c3ncc[nH]3)c(N)n(CCCOC)c2n1 (racemic) [Compound 11, 2-Amino-7-(3-hydroxypent-1-yn-1-yl)-3-(1H-imidazol-2-yl)-1-(3-methoxypropyl)-1,8-naphthyridin-4(1H)-one]
IC50 (VEGFR-3 [1]): 334 nM

CCn1c(N)c(-c2ncc[nH]2)c(=O)c2ccc(C#CC(C)(O)c3cccs3)nc21 (racemic) [Compound 21, 2-Amino-1-ethyl-7-[3-hydroxy-3-(thiophen-2-yl)but-1-yn-1-yl]-3-(1H-imidazol-2-yl)-1,8-naphthyridin-4(1H)-one]
IC50 (VEGFR-3 [1]): 24 nM

CCn1c(N)c(-c2nc(C)c[nH]2)c(=O)c2ccc(C#C[C@@](C)(O)COC)nc21 [Compound 5, 2-Amino-1-ethyl-7-[(3R)-3-hydroxy-4-methoxy-3-methylbut-1-yn-1-yl]-3-(4-methyl-1H-imidazol-2-yl)-1,8-naphthyridin-4(1H)-one]
IC50 (VEGFR-3 [1]): 45 nM
inhibition at 30 mg/kg (VEGFR-3 [2]; [4]): 86%

CCC(O)C#Cc1ccc2c(=O)c(-c3ncc[nH]3)c(N)n(CC)c2n1 (racemic) [Compound 23, 2-Amino-1-ethyl-7-(3-hydroxypent-1-yn-1-yl)-3-(1H-imidazol-2-yl)-1,8-naphthyridin-4(1H)-one]
IC50 (VEGFR-3 [1]): 19 nM

CCn1c(N)c(-c2ncc[nH]2)c(=O)c2ccc(C#CC(C)(O)c3ccccc3)nc21 (racemic) [Compound 17, 2-Amino-1-ethyl-7-(3-hydroxy-3-phenylbut-1-yn-1-yl)-3-(1H-imidazol-2-yl)-1,8-naphthyridin-4(1H)-one]
IC50 (VEGFR-3 [1]): 13 nM
inhibition at 30 mg/kg (VEGFR-3 [2]; [4]): 37%

CCn1c(N)c(-c2ncc[nH]2)c(=O)c2ccc(C#C[C@](C)(O)CO)nc21 [Compound 28, 2-Amino-7-((3S)3,4-dihydroxy-3-methyl-but-1-ynyl)-1-ethyl-3-(1H-imidazol-2-yl)-1,8-naphthyridin-4(1H)-one]
IC50 (VEGFR-3 [1]): 153 nM

CCn1c(N)c(-c2ncc[nH]2)c(=O)c2ccc(C#CC3(O)CCC3)nc21 [Compound 13, 2-Amino-1-ethyl-7-[(1-hydroxycyclobutyl)ethynyl]-3-(1H-imidazol-2-yl)-1,8-naphthyridin-4(1H)-one]
IC50 (VEGFR-3 [1]): 41 nM
inhibition at 30 mg/kg (VEGFR-3 [2]; [4]): 23%

CCn1c(N)c(-c2ncc[nH]2)c(=O)c2ccc(C#C[C@@](C)(O)COC)cc21 [Compound 7, 2-Amino-1-ethyl-7-[(3R)-3-hydroxy-4-methoxy-3-methylbut-1-yn-1-yl]-3-(1H-imidazol-2-yl)quinolin-4(1H)-one]
IC50 (VEGFR-3 [1]): 19 nM

CCC(O)C#Cc1ccc2c(=O)c(-c3ncc[nH]3)c(N)n(C3CCCC3)c2n1 (racemic) [Compound 10, 2-Amino-1-cyclopentyl-7-(3-hydroxypent-1-yn-1-yl)-3-(1H-imidazol-2-yl)-1,8-naphthyridin-4(1H)-one]
IC50 (VEGFR-3 [1]): 37 nM

CCn1c(N)c(-c2ncc[nH]2)c(=O)c2ccc(-c3ccc(O)c(Cl)c3)nc21 [Compound 8, 2-Amino-7-(3-chloro-4-hydroxyphenyl)-1-ethyl-3-(1H-imidazol-2-yl)-1,8-naphthyridin-4(1H)-one]
IC50 (VEGFR-3 [1]): 73 nM

CCn1c(N)c(-c2ncc[nH]2)c(=O)c2ccc(C#CC(O)c3ccccc3)nc21 (racemic) [Compound 26, 2-Amino-1-ethyl-7-(3-hydroxy-3-phenylprop-1-yn-1-yl)-3-(1H-imidazol-2-yl)-1,8-naphthyridin-4(1H)-one]
IC50 (VEGFR-3 [1]): 120 nM

CCC(O)C#Cc1ccc2c(=O)c(-c3ncc[nH]3)c(N)n(CC3CC3)c2n1 (racemic) [Compound 6, 2-Amino-1-(cyclopropylmethyl)-7-(3-hydroxypent-1-yn-1-yl)-3-(H-imidazol-2-yl)-1,8-naphthyridin-4(1H)-one]
IC50 (VEGFR-3 [1]): 85 nM

CCn1c(N)c(-c2ncc[nH]2)c(=O)c2ccc(C#CC(C)(O)c3ccccc3F)nc21 (racemic) [Compound 9, 2-Amino-1-ethyl-7-[3-(2-fluorophenyl)-3-hydroxybut-1-yn-1-yl]-3-(1H-imidazol-2-yl)-1,8-naphthyridin-4(1H)-one]
IC50 (VEGFR-3 [1]): 16 nM

CCCC(O)C#Cc1ccc2c(=O)c(-c3ncc[nH]3)c(N)n(CC)c2n1 (racemic) [Compound 24, 2-Amino-1-ethyl-7-(3-hydroxyhex-1-yn-1-yl)-3-(1H-imidazol-2-yl)-1,8-naphthyridin-4(1H)-one]
IC50 (VEGFR-3 [1]): 85 nM

CCn1c(N)c(-c2ncc[nH]2)c(=O)c2ccc(C#CC(O)C(C)C)nc21 (racemic) [Compound 25, 2-Amino-1-ethyl-7-(3-hydroxy-4-methylpent-1-yn-1-yl)-3-(1H-imidazol-2-yl)-1,8-naphthyridin-4(1H)-one]
IC50 (VEGFR-3 [1]): 303 nM

CCC(O)C#Cc1ccc2c(=O)c(-c3ncc[nH]3)c(N)n(CCOC)c2n1 (racemic) [Compound 12, 2-Amino-7-(3-hydroxypent-1-yn-1-yl)-3-(1H-imidazol-2-yl)-1-(2-methoxyethyl)-1,8-naphthyridin-4(1H)-one]
IC50 (VEGFR-3 [1]): 166 nM

CCn1c(N)c(-c2ncc[nH]2)c(=O)c2ccc(C#CC(C)(O)c3cccc(F)c3)nc21 (racemic) [Compound 18, 2-Amino-1-ethyl-7-[3-(3-fluorophenyl)-3-hydroxybut-1-yn-1-yl]-3-(1H-imidazol-2-yl)-1,8-naphthyridin-4(1H)-one]
IC50 (VEGFR-3 [1]): 36 nM

CCn1c(N)c(-c2ncc[nH]2)c(=O)c2ccc(C#CC(O)(c3ccccc3)C(F)(F)F)nc21 (racemic) [Compound 19, 2-Amino-1-ethyl-3-(1H-imidazol-2-yl)-7-(4,4,4-trifluoro-3-hydroxy-3-phenylbut-1-yn-1-yl)-1,8-naphthyridin-4(1H)-one]
IC50 (VEGFR-3 [1]): 14 nM
